Data as given in publication PMC3664642, “A Peptide against Soluble Guanylyl Cyclase α1: A New Approach to Treating Prostate Cancer” (PLoS ONE, 2013).
Entries after “also recorded” stand apart in the source; their conditions may differ. Where no end group is shown, it is not given here.

How the values were obtained:
AKT [1] = assay: Western blot of AKT in cells; format: cell-based; details: LNCaP, 25 µM, Fig. S4A
Description: (§1) Western blotting was performed as described using primary antibodies against sGCα1 (Cayman Chemical), pan-Akt (Cell Signaling Technology), phospho-AKT (S473, T308) (Cell Signaling Technology), phospho-PDK1 (Cell Signaling Technology), phospho-GSK-3β (Cell Signaling Technology), PARP (Cell Signaling Technology), and β-Actin (Abcam).
Supplementary file pone.0064189.s004.tif: Figure S4 Peptide A-mediated down-regulation of AKT is not involved in its cytotoxicity to prostate cancer cells. Western blotting was used to measure the levels of total AKT or Ser-473-phosphorylated AKT in (A) LNCaP cells treated with Vehicle, Peptide A-8R, or Peptide C-8R (25 µM) for different times, as shown, (B) mouse xenograft tumors treated with Vehicle or Peptide A-8R, or (C) LNCaP cells infected with Empty or AKT-expressing adenovirus and treated with Peptide A-8R at different concentration, as shown, for 30 min. Note that β-actin was used to control for protein loading. (D) LNCaP cells, infected with Empty or AKT-expressing adenovirus, were grown in 10% serum under different concentrations of Peptide A-8R, as shown. Cell number was measured after 0–6 days of incubation. Data points represent averages of three independent experiments plus standard deviations. (TIF) Click here for additional data file.

[2] = system: Caspase 3/7 activity in Cos cells; assay: Caspase 3/7 assay, Cos cells; format: cell-based, African green monkey; details: 10 µM; 0–24 hrs; Fig. 5C
Description: For proliferation, cells were grown in medium containing 2% FBS extracted with dextran-coated charcoal (DCC). 48 hours later, ethanol or 1 nM R1881 was added to the cells followed by peptide treatment. The MTT assay (Sigma) was used as before to determine cell number. For apoptosis, 5000 cells were seeded in 96-well plates and treated with Vehicle (DMSO), Peptide A-8R (25 µM), Etoposide (50 µM) (Sigma) at different time points. The Caspase (3/7) activity was measured using Apo-ONE Homogeneous Caspase-3/7 assay kit (Promega). PARP cleavage was also used to measure apoptosis, and is described below.
Figure 5 Peptide A-8R induces apoptosis of prostate cancer cells. (A) LNCaP, (B) PC-3, or (C) Cos cells were treated with Vehicle, Peptide A-8R (10 µM), or Etoposide (20 µM) for 0–24 hrs and subjected to a Caspase assay to measure apoptosis. Bar graphs represent averages of three independent experiments plus standard deviations. All activities are relative to the first condition, and this activity was set to 1. Asterisks indicate statistical significance (P<0.005). (D) LNCaP cells were treated with Vehicle, Peptide C-8R, Peptide A-8R, or Etoposide (each drug at 50 µM) for 8 hrs and monitored for apoptosis by measuring PARP cleavage using Western blotting. Note that β-actin was used to control for protein loading.

AKT [3] = assay: Western blot of AKT in xenograft tumors; format: in vivo; details: mouse xenograft tumors; Fig. S4B
Description: as §1
(§2) 2×10^6 C81 cells in 50 µL of growth medium was mixed with 50 µL Matrigel (BD Biosciences) and injected into both flanks of 4–6-week old SCID male mice. When tumor sizes reached 200 mm^3, 50 µL of Peptide A-8R (40 mg Peptide A-8R/Kg of animal) or Vehicle (DMSO) was directly injected into the tumors every other day. Injections were stopped after 5 times and tumors were measured every 3 days. Mice were euthanized after 3 weeks and tumors were excised. All procedures were approved by the University of Toledo Division of Lab Animal Recourses (DLAR). Protein extracts were prepared by boiling the tumor tissue in 3× SDS buffer, and evaluated by SDS-PAGE gel.
Supplementary file pone.0064189.s004.tif: Figure S4 Peptide A-mediated down-regulation of AKT is not involved in its cytotoxicity to prostate cancer cells. […] Cell number was measured after 0–6 days of incubation. […]

[4] = Behavior and weight of mice in the animal studies; format: in vivo, mouse
Description: as §2
This study was carried out in strict accordance with the recommendations in the Guide for the Care and Use of Laboratory Animals of the National Institutes of Health. The protocol was approved by the Institutional Animal Care and Use Committee of the University of Toledo (Protocol Number: 106418). During the experiments all animals were monitored daily for morbidity and all efforts were made to minimize suffering. At the end of the study all animals were euthanized using inhalation of carbon dioxide, after which surgery was performed to excise tumors from all animals.

C81 cells = assay: DAPI DNA staining, C81 cells; format: cell-based; details: 50 µM Peptide A-8R, 1 hr, with or without 5 mM NAC, Fig. S6
Description: C81 cells were first treated with or without 5 mM NAC for 2 hrs and then Vehicle or different concentrations of Peptide A-8R, as shown, for 1 hr and stained with DAPI. Phase contrast images are shown. (TIF) Click here for additional data file.

LNCaP xenograft tumors = assay: LNCaP mouse xenograft tumor study; format: in vivo; details: direct intratumoral injection; three animals per treatment; P<0.0005; Fig. S8
Description: as §2, with “2×10^6 C81 cells in 50 µL of growth medium was mixed with 50 µL Matrigel (BD Biosciences) and injected into both flanks of 4–6-week old SCID male mice.” left out
Mouse xenograft tumors derived from LNCaP cells were treated with Vehicle or Peptide A-8R, after which they were allowed to grow for an additional three weeks without treatment. Data points represent average tumor size of three animals for each treatment plus standard deviations. Note that there is a statistical difference (P<0.0005) in average tumor size for each day of tumor measurement. Arrow represents day of last injection of Vehicle or Peptide A-8R. (TIF) Click here for additional data file.

Ac-TFCKAFPFHIIRRRRRRRR [Peptide A-8R]
effect on phosphorylated AKT level (AKT [1]; Ser-473): similarly affected
effect on total AKT protein level (AKT [1]; time course, 50 min): strong, time-dependent negative effect on the AKT protein, such that by 50 min most of the measurable AKT is gone; also recorded: significantly reduces AKT protein levels
induction of apoptosis, Cos [2]: failed to induce apoptosis
effect on AKT protein level in tumors (AKT [3]): same negative effect on AKT protein levels; also recorded: significantly reduces AKT protein levels
effect on behavior or weight of mice [4]: no effect on the behavior or weight of the mice
DAPI staining / effect on nuclei and DNA (C81 cells): kills the cells and disrupts their nuclei and DNA such that DAPI staining yields no signal
anti-tumor activity, LNCaP xenograft (LNCaP xenograft tumors): able to stop tumor growth; also recorded: strong anti-tumor activity; also recorded: blocks the growth of LNCaP prostate tumors
